Results from patent US11230711B2, “Inhibition of LET7I as a means to enhance the protective effect of progesterone against stroke” (UNIVERSITY OF NORTH TEXAS HEALTH SCIENCE CENTER, priority 2017, dated 2022).

What was measured:
Format in all cases: in vivo, mouse
[1] = system: synaptophysin (SYP); assay: Synaptophysin (SYP) protein and puncta in the penumbra after MCAo (immunofluorescence, Western blot); conditions: MCAo mice
Excerpt: FIGS. 14A-14D: Inhibition of let-7i enhances progesterone (P4)'s effect on the expression of synaptophysin in the penumbra. (FIG. 14A) Representative confocal images of penumbra region staining for synaptophysin (SYP, red) and DAPI (blue). (60×, Scale bars=30 μm). (FIG. 14B) Quantification of average relative SYP puncta presents in each field (n=3 per group). n.s: not significant and ***P<0.001 compared to sham, ### P<0.001 and ##P<0.01 compared to P4+scrambled. (FIG. 14C) Representative immunoblots probed for SYP protein. (FIG. 14D) Quantification graph of Syp signal, expressed as a ratio to Gapdh (n=4-5 per group). n.s: not significant, ***P<0.001 and **P<0.01 compared to sham, ## P<0.01 and #P<0.05 compared to P4+scrambled.
Primary cortical astrocytes and mouse brains were lysed with RIPA lysis buffer containing protease and phosphatase inhibitors, as previously described (44). […] Total protein concentrations were determined using the Bio-Rad DC protein assay kit (Bio-Rad Laboratories). […]
Mouse brains were fixed in 4% PFA overnight at 4° C. and subsequently cryoprotected in 30% sucrose solution. […] After immunostaining, sections were mounted onto microscope slides with Vectashield mounting medium (Vector Laboratories) and observed under a confocal fluorescence microscope (FV1200, Olympus) with a […] objective. […]

[2] = system: BDNF; assay: pro- and mature BDNF protein in the penumbra after MCAo (Western blot); conditions: MCAo mice; 14 days post stroke, compared to sham; FIG. 11D
Excerpt: (§1) (FIG. 11A) Representative immunoblots probed for Pgrmc1, pro- and mature-BDNF. (FIG. 11B) Quantitation graph of relative Pgrmc1 protein ratio to Gapdh (n=4-5 per group). (FIG. 11C) Quantitation graph of relative pro-BDNF protein ratio to Gapdh (n=4-5 per group). (FIG. 11D) Quantitation graph of relative mature BDNF protein ratio to Gapdh (n=4-5 per group). (FIG. 11E) Quantitation graph of relative let-7i expression in ischemic brain (n=4-5 per group). n.s: not significant, ** P<0.01 and *P<0.05 compared to sham, and #P<0.05 compared to P4+scrambled. Data are presented as the mean±SEM.
Primary cortical astrocytes and mouse brains were lysed with RIPA lysis buffer containing protease and phosphatase inhibitors, as previously described (44). After homogenization, samples were centrifuged at 45,000 rpm for 30 min at 4° C. and supernatants were collected. Total protein concentrations were determined using the Bio-Rad DC protein assay kit (Bio-Rad Laboratories). Cell lysates were separated by SDS-PAGE and transferred onto polyvinylidene fluoride membrane (Bio-Rad Laboratories) by electroblotting. Membranes were blocked with 5% skim milk in tris-buffered saline containing 0.2% Tween 20 (TBS-T) for 1 h at room temperature, followed by overnight incubations of primary antibodies at 4° C. […]

[3] = system: let-7i; assay: let-7i expression in the penumbra of the ischemic brain after MCAo (qRT-PCR); conditions: MCAo mice; day 7 up to 14 days following stroke; FIG. 11E
Excerpt: as §1
For miRNA expression measurements, total RNA (10 ng) was reverse transcribed into cDNA in a total volume of 15 μl using the microRNA cDNA Archive Kit (ThermoFisher Scientific) according to the manufacturer's instructions. The reaction mixture contained water, 2× quantitative PCR Master Mix (Eurogentec), and 20× Assay-On-Demand for each target gene. A separate reaction mixture was prepared for the endogenous control, U6. The reaction mixture was aliquoted in a 96-well plate, and cDNA added to give a final volume of 20 μl. Each sample was analyzed in triplicate. The comparative cycle threshold (Ct) method (2^−ΔΔCt) was used to calculate the relative changes in target miRNA expression.
All mice were first ovariectomized to deplete endogenous ovarian hormone levels. […]

## CC(=O)[C@H]1CC[C@H]2[C@@H]3CCC4=CC(=O)CC[C@]4(C)[C@H]3CC[C@]12C [P4, progesterone]
[1]; day 7 and day 14, FIG. 14D
  SYP total protein expression in the penumbra: delayed, but sustained, restoration
[1]; day 14, FIG. 14B
  number of SYP puncta in the penumbra: positive effect
[2]
  mature BDNF level in the penumbra: able to maintain the same level
[3]
  stroke-induced increase in let-7i expression in the penumbra: did not attenuate
